Assays:
Assay type in all cases: in vivo
[1] = test system: Alopecurus myosuroides (ALOMY); experiment: Biological Example 1 glasshouse screen, pre-emergence herbicidal activity; conditions: 312 h, application rate 250 g/ha, evaluated after 13 days, read-out: ALOMY percentage phytotoxicity
Summary of the method: (§1)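 Seeds sown in standard soil in pots were sprayed 1 day (pre-emergence) or 8 days (post-emergence) after sowing with technical active ingredient in acetone/water (50:50) containing 0.5% Tween 20. Plants grown at 24/16°C day/night, 14 h light, 65% humidity. Visual % phytotoxicity scored after 13 days (100% = total damage).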

[2] = test system: Echinochloa crus-galli (ECHCG); experiment: as above; conditions: 312 h, application rate 250 g/ha, evaluated after 13 days, read-out: ECHCG percentage phytotoxicity
Summary of the method: as §1

Avena fatua (AVEFA) [3] = experiment: as above; conditions: 312 h, application rate 250 g/ha, evaluated after 13 days, read-out: AVEFA percentage phytotoxicity
Summary of the method: (§2)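 Pots in a glasshouse (24/16°C day/night, 14 h light, 65% humidity) were sprayed one day after sowing (pre-emergence) or after 8 days (post-emergence), using acetone/water (50:50) with 0.5% Tween 20. Phytotoxicity was scored visually as % damage (0-100) 13 days after application.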

Lolium perenne (LOLPE) [4] = experiment: as above; conditions: 312 h, application rate 250 g/ha, evaluated after 13 days, read-out: LOLPE percentage phytotoxicity
Summary of the method: as §2

[5] = test system: Alopecurus myosuroides (ALOMY); experiment: Biological Example 1 glasshouse screen, post-emergence herbicidal activity; conditions: 312 h, application rate 250 g/ha, evaluated after 13 days, read-out: ALOMY percentage phytotoxicity
Summary of the method: as §1

[6] = test system: Echinochloa crus-galli (ECHCG); experiment: as above; conditions: 312 h, application rate 250 g/ha, evaluated after 13 days, read-out: ECHCG percentage phytotoxicity
Summary of the method: as §1

Avena fatua (AVEFA) [7] = experiment: as above; conditions: 312 h, application rate 250 g/ha, evaluated after 13 days, read-out: AVEFA percentage phytotoxicity
Summary of the method: as §2

Lolium perenne (LOLPE) [8] = experiment: as above; conditions: 312 h, application rate 250 g/ha, evaluated after 13 days, read-out: LOLPE percentage phytotoxicity
Summary of the method: as §2

[9] = test system: Alopecurus myosuroides (ALOMY); experiment: Biological Example 4B (not-previously-formulated compounds) post-emergence herbicidal activity on grassy weeds; conditions: 14 DAA, technical compound in IF50 + Adigor, mean of two
Procedure: (§3) Seeds of a variety of test species are sown in standard soil in pots. After cultivation for 14 days under controlled conditions in a glasshouse (at 22/16°C., day/night; 16 hours light; 65% humidity), the plants are sprayed with an aqueous spray solution derived from the formulation of the technical active ingredient dissolved in acetone plus IF50 containing
(§4) 10.56 wt % Emulsogen™EL (castor oil ethoxylate, CAS Registry number 61791-12-6)
(§5) 42.22 wt % N-Methyl pyrrolidone
(§6) 42.22 wt % dipropylene glycol monoethyl ether
(§7) at a 1:20 ratio of (technical active ingredient:IF50). The adjuvant Adigor™(an adjuvant containing inter alia methylated rapeseed oil, e.g. available from Syngenta) is added to form a 0.5% v/v solution. The test plants are then grown on under controlled conditions in the glasshouse (at 22/16°C., day/night; 16 hours light; 65% humidity) and are watered twice daily. After 14 days the test is evaluated (100%=total damage to plant; 0%=no damage to plant).
(§8) […] Herbicidal activity (phytotoxicity) is evaluated visually, and an assessed percentage phytotoxicity score is given for each herbicidal application on each plant species (with 100%=total damage to plant; 0%=no damage to plant). Two repetitions are made for each experiment, and the mean herbicidal activity (phytotoxicity) data is reported.
(§9) Test plants: Avena fatua (AVEFA), Lolium multiflorum (LOLMU), Setaria viridis (SETVI), Poa annua (POAAN), Alopecurus myosuroides (ALOMY). All five of these are grassy monocotyledonous weeds.

Avena fatua (AVEFA) [10] = experiment: as above; conditions: 14 DAA, technical compound in IF50 + Adigor, mean of two
Procedure: as §3, §4, §5, §6, §7, §8, §9

Poa annua (POAAN) = experiment: as above; conditions: 14 DAA, technical compound in IF50 + Adigor, mean of two
Procedure: as §3, §4, §5, §6, §7, §8, §9

Setaria viridis (SETVI) = experiment: as above; conditions: 14 DAA, technical compound in IF50 + Adigor, mean of two
Procedure: as §3, §4, §5, §6, §7, §8, §9

[11] = test system: Lolium multiflorum (LOLMU); experiment: as above; conditions: 14 DAA, technical compound in IF50 + Adigor, mean of two
Procedure: as §3, §4, §5, §6, §7
(§10) Post-emergence herbicidal activity (phytotoxicity) data, on certain grassy monocotyledonous weeds and cereal crops in a glasshouse, are measured 14 days after application of the herbicide (14 DAA), for (a) a […] the same time as the herbicide, and (b) for a post-emergence application rate of 30 g/ha of the test herbicide with 50 g/ha of cloquintocet-mexyl safener applied at substantially the same time as the herbicide. Herbicidal activity (phytotoxicity) is evaluated visually, and an assessed percentage phytotoxicity score is given for each herbicidal application on each plant species (with 100%=total damage to plant; 0%=no damage to plant). Two repetitions are made for each experiment, and the mean herbicidal activity (phytotoxicity) data is reported.
as §9

Winter Barley “Suzuka” = experiment: Biological Example 4B post-emergence phytotoxicity on cereal crops; conditions: 14 DAA, technical compound in IF50 + Adigor, mean of two
Procedure: as §3, §4, §5, §6, §7, §8

Winter Wheat “Hereward” = experiment: as above; conditions: 14 DAA, technical compound in IF50 + Adigor, mean of two
Procedure: as §3, §4, §5, §6, §7, §8

Spring Wheat “Teal” = experiment: as above; conditions: 14 DAA, technical compound in IF50 + Adigor, mean of two
Procedure: as §3, §4, §5, §6, §7, §10

[12] = test system: Spring Barley “Harrington”; experiment: as above; conditions: 14 DAA, technical compound in IF50 + Adigor, mean of two
Procedure: as §3, §4, §5, §6, §7
Post-emergence herbicidal activity (phytotoxicity) data, on certain grassy monocotyledonous weeds and cereal crops in a glasshouse, are measured 14 days after application of the herbicide (14 DAA), for (a) a post-emergence application rate of 60 g/ha of the test herbicide with or without 50 g/ha of cloquintocet-mexyl safener applied at substantially the same time as the herbicide, and (b) for a post-emergence application rate of 30 g/ha of the test herbicide with 50 g/ha of cloquintocet-mexyl safener applied at substantially the same time as the herbicide. Herbicidal activity (phytotoxicity) is evaluated visually, and an assessed percentage phytotoxicity score is given for each herbicidal application on each plant species (with 100%=total damage to plant; 0%=no damage to plant). Two repetitions are made for each experiment, and the mean herbicidal activity (phytotoxicity) data is reported.

[13] = test system: Spring Barley “Harrington”; experiment: as above; conditions: cloquintocet-mexyl 50 g/ha, 14 DAA, technical compound in IF50 + Adigor, mean of two
[14] = 7.5 g/ha, cloquintocet-mexyl 50 g/ha
[15] = 15 g/ha, cloquintocet-mexyl 50 g/ha
[16] = 30 g/ha, cloquintocet-mexyl 50 g/ha
[17] = 60 g/ha, cloquintocet-mexyl 0 g/ha
[18] = 60 g/ha, cloquintocet-mexyl 50 g/ha

CC#Cc1cc(C)c(C2C(=O)CC(Cc3ccccn3)C2=O)c(CC)c1 (centres unmarked) [Compound A-26]
pest or weed control at 250 g/ha [1]: 100%
pest or weed control at 250 g/ha [2]: 100%
pest or weed control at 250 g/ha (Avena fatua (AVEFA) [3]): 100%
pest or weed control at 250 g/ha (Lolium perenne (LOLPE) [4]): 100%
pest or weed control at 250 g/ha [5]: 100%
pest or weed control at 250 g/ha [6]: 100%
pest or weed control at 250 g/ha (Avena fatua (AVEFA) [7]): 100%
pest or weed control at 250 g/ha (Lolium perenne (LOLPE) [8]): 100%
ALOMY % phytotoxicity [9, 14]: 97%
ALOMY % phytotoxicity [9, 15]: 99%
ALOMY % phytotoxicity [9, 16]: 100%
ALOMY % phytotoxicity [9, 17]: 100%
ALOMY % phytotoxicity [9, 18]: 100%
AVEFA % phytotoxicity (Avena fatua (AVEFA) [10]; [14]): 83%
AVEFA % phytotoxicity (Avena fatua (AVEFA) [10]; [15]): 99%
AVEFA % phytotoxicity (Avena fatua (AVEFA) [10]; [16]): 100%
AVEFA % phytotoxicity (Avena fatua (AVEFA) [10]; [17]): 100%
AVEFA % phytotoxicity (Avena fatua (AVEFA) [10]; [18]): 100%
POAAN % phytotoxicity (Poa annua (POAAN); [14]): 0%
POAAN % phytotoxicity (Poa annua (POAAN); [15]): 13%
POAAN % phytotoxicity (Poa annua (POAAN); [16]): 33%
POAAN % phytotoxicity (Poa annua (POAAN); [17]): 73%
POAAN % phytotoxicity (Poa annua (POAAN); [18]): 70%
SETVI % phytotoxicity (Setaria viridis (SETVI); [14]): 68%
SETVI % phytotoxicity (Setaria viridis (SETVI); [15]): 95%
SETVI % phytotoxicity (Setaria viridis (SETVI); [16]): 100%
SETVI % phytotoxicity (Setaria viridis (SETVI); [17]): 100%
SETVI % phytotoxicity (Setaria viridis (SETVI); [18]): 100%
LOLMU % phytotoxicity [11, 14]: 90%
LOLMU % phytotoxicity [11, 15]: 100%
LOLMU % phytotoxicity [11, 16]: 100%
LOLMU % phytotoxicity [11, 17]: 100%
LOLMU % phytotoxicity [11, 18]: 100%
Winter Barley “Suzuka” phytotoxicity (%) (Winter Barley “Suzuka”; [14]): 4%
Winter Barley “Suzuka” phytotoxicity (%) (Winter Barley “Suzuka”; [15]): 53%
Winter Barley “Suzuka” phytotoxicity (%) (Winter Barley “Suzuka”; [16]): 100%
Winter Barley “Suzuka” phytotoxicity (%) (Winter Barley “Suzuka”; [17]): 100%
Winter Barley “Suzuka” phytotoxicity (%) (Winter Barley “Suzuka”; [18]): 100%
Winter Wheat “Hereward” phytotoxicity (%) (Winter Wheat “Hereward”; [14]): 30%
Winter Wheat “Hereward” phytotoxicity (%) (Winter Wheat “Hereward”; [15]): 80%
Winter Wheat “Hereward” phytotoxicity (%) (Winter Wheat “Hereward”; [16]): 90%
Winter Wheat “Hereward” phytotoxicity (%) (Winter Wheat “Hereward”; [17]): 99%
Winter Wheat “Hereward” phytotoxicity (%) (Winter Wheat “Hereward”; [18]): 98%
Spring Wheat “Teal” phytotoxicity (%) (Spring Wheat “Teal”; [14]): 23%
Spring Wheat “Teal” phytotoxicity (%) (Spring Wheat “Teal”; [15]): 78%
Spring Wheat “Teal” phytotoxicity (%) (Spring Wheat “Teal”; [16]): 93%
Spring Wheat “Teal” phytotoxicity (%) (Spring Wheat “Teal”; [17]): 100%
Spring Wheat “Teal” phytotoxicity (%) (Spring Wheat “Teal”; [18]): 97%
Spring Barley “Harrington” phytotoxicity (%) [12, 16]: 99%
Spring Barley “Harrington” phytotoxicity (%) [12, 17]: 100%
Spring Barley “Harrington” phytotoxicity (%) [12, 18]: 100%
Spring Barley “Harrington” phytotoxicity (%) ([13]; 7.5 g/ha): 10%
Spring Barley “Harrington” phytotoxicity (%) ([13]; 15 g/ha): 80%

From patent US9107415B2, “2-(substituted-phenyl)-cyclopentane-1,3-dione compounds, and derivatives thereof” (Syngenta Limited, priority 2011, dated 2015)
